The values that follow come from patent US9822091B2, “Method for producing ellagic acid composition” (KAO CORPORATION, priority 2013, dated 2017).

Data set [1] can be described thus: Free ellagic acid dissolved in the aqueous medium of the heat-treated solution (HPLC quantification). The format is physicochemical.
Method: (§1) Free ellagic acid was quantified by a gradient method using a high-performance liquid chromatograph manufactured by Hitachi, Ltd. with a column Cadenza CD-C18 (4.6 mmφ×150 mm, 3 μm) manufactured by Imtakt Corporation at a column temperature of 40° C. A 0.05 mol/L aqueous solution of acetic acid was used as a mobile phase solution A, and acetonitrile was used as a mobile phase solution B, respectively, and they were delivered at 1.0 mL/min.
(§2) The sample injection volume was 10 μL, and quantification was carried out based on an absorbance at a wavelength of 254 nm.
Solubilization ratio (%) of free ellagic acid=[(Mass of free ellagic acid dissolved in water or aqueous medium)/(Mass of free ellagic acid in material for heat treatment)]×100
The solution in the slurry supply tank was fed to a stainless-steel flow reactor having an inner volume of 100 mL (manufactured by Nitto Koatsu Co., Ltd.) at 100 mL/min, and was subjected to heat treatment at 110° C. (mean residence time: 1 minute). The pressure was adjusted to 0.3 MPa (gauge pressure) with an outlet valve. […] The cooling rate determined from the time of cooling from 110° C. to 90° C. was 7.88° C./s. A part of the heat-treated solution was sampled, and the amount of free ellagic acid dissolved in the aqueous medium was measured to determine a solubilization ratio.
A short description of data set [2]: Evaluation of solubility: free ellagic acid dissolved in water from the dried ellagic acid composition. It is filed as physicochemical.
Method: as §1, §2
The solubility of free ellagic acid in water in an ellagic acid composition after drying was determined by: adding the ellagic acid composition to distilled water so that the amount of solids was one in an aqueous solution or a suspension before drying; shaking the mixture at 25° C. for 5 minutes; filtering the resultant with a cellulose acetate membrane filter having a pore size of 0.2 μm; and measuring the concentration of ellagic acid dissolved therein.
Solubilization ratio (%) of free ellagic acid=[(Mass of free ellagic acid dissolved in water or aqueous medium)/(Mass of free ellagic acid in material for heat treatment)]×100 […]

In the case of `O=c1oc2c(O)c(O)cc3c(=O)oc4c(O)c(O)cc1c4c23` [Comparative Example 1, ellagic acid dihydrate], the results for the Solubilization ratio in data set [1] and in data set [2] (5 min) were 8% and 6%, respectively. The “Concentration of free ellagic acid dissolved in aqueous medium (25° C.)” value in data set [1] (heat-treated solution before drying, 25° C.) is 6000 ng/mL. Also, in data set [2] (composition powder after freeze or spray drying, redissolved in distilled water, shaken 5 minutes at 25° C., 0.2 μm filter), the “Concentration of free ellagic acid dissolved in water (25° C.)” value was 5000 ng/mL.
